Each structure is given as a SMILES string.

Results on three compounds are retold here after patent publication US20250206760A1, “NITROGEN-CONTAINING HETEROCYCLIC COMPOUND, PREPARATION METHOD THEREFOR, AND PHARMACEUTICAL APPLICATION THEREOF” (Jiangsu Hengrui Pharmaceuticals Co., Ltd., priority 2022, published 2025).

The nature of data set [1]: in vivo. The conditions noted are these: female, C57, mouse, po, 50 mg/kg. Details: species or system C57 mice. The method, then:
C57 mice were used as test animals. After intragastric (i.g.) administration of example compounds to C57 mice, the plasma concentrations at different time points were measured by the LC/MS/MS method. The pharmacokinetic behavior of the compounds of the present disclosure in C57 mice was studied and their pharmacokinetic profiles were evaluated.
Twenty-seven C57 mice, female, were evenly divided into 3 groups, provided by Beijing HFK Bioscience Co., Ltd., and intragastrically administered.
A certain amount of example compound was weighed out and dissolved in 5% DMSO+20% PEG400+70% (10% TPGS)+5% (1% HPMC K100LV) to prepare a 2.5 mg/mL colorless clear solution.
The dose administered was 50 mg/kg, and the volume was 20.0 mL/kg.
0.1-mL blood samples were collected from the orbit before administration and 0.25 h, 0.5 h, 1.0 h, 2.0 h, 4.0 h, 6.0 h, 8.0 h, 11.0 h, and 24.0 h after administration. The blood samples were placed into EDTA-K2 anticoagulation test tubes and centrifuged at 10,000 rpm for 2 min (4° C.), and plasma was separated within 1 h and stored at −20° C. before analysis. The procedure starting from the blood collection to the centrifugation was performed under ice-bath conditions. Access to food was given 2 hours after administration.
After administration of different concentrations of the test compounds, the plasma concentrations of the test compounds in C57 mice were determined: plasma samples (50 μL) were collected from the C57 mice at various time points after administration, and 25 μL of labetalol (1 μg/mL) and 450 μL of acetonitrile were added to each of the samples.
The mixtures were vortexed and centrifuged at 3700 rpm for 10 min. 0.1 μL of the supernatant was taken for LC/MS/MS analysis.

Data set [2] concerns HER2 A775_G776insYVMA mutant Ba/F3. Nature of the data set: Ba/F3 cell proliferation assay, HER2 A775_G776insYVMA mutant. Type of data set: cell-based. The conditions noted are these: Mus musculus, BaF3, 72 h, Celltiter-Glo cell viability; for GI50: read-out: HER2 A775_G776 ins YVMA/BaF3 GI50; for Emax: read-out: HER2 A775_G776 ins YVMA/BaF3 Imax %. The method, then: (§1) EGFR wild-type Ba/F3 cells (Cobioer, Cat. No. CBP73110) in the logarithmic growth phase were seeded into a 96-well plate at 2.5×10^3 cells/[…] in a growth medium, and HER2 wild-type Ba/F3 cells (Cobioer, Cat. No. CBP73110) or HER2 A775_G776insYVMA mutant Ba/F3 (Cobioer, Cat. No. CBP73184) in the logarithmic growth phase were seeded into a 96-well plate at 5×10^3 cells/100 μL in a growth medium.
(§2) The plates were placed in a cell incubator at 37° C. overnight. The compound diluted in 3-fold gradient with a medium was added to the plates at 100 μL/well the next day. All treatments were performed in triplicate. The plates were cultured in the cell incubator at 37° C. for another 72 h. Celltiter-Glo Luminescent cell viability assay was performed.
(§3) The cell proliferation rate corresponding to each well was calculated according to the following formula: proliferation %=(test compound well G3-GO average value)/(DMSO control well G3 average value -GO average value)×100. According to the corresponding proliferation rate and concentration of each gradient concentration well, a gradient curve of cell proliferation was fitted using Prism Graphpad software, and GI50 (GI50 is defined as the concentration of a compound corresponding to the cell proliferation inhibition rate of 50%) of the compound was calculated.
A general note: ATP-based viability assays read luminescence as a measure of living cells.

Data set [3] concerns EGFR wild-type Ba/F3 cells. Description: Ba/F3 cell proliferation assay, EGFR wild-type. Type of data set: cell-based. The settings on record: 72 h, Celltiter-Glo cell viability; for GI50: Mus musculus, BaF3, read-out: EGFR WT/BaF3 GI50. The procedure:
as §1, §2, §3

Data set [4] concerns HER2 wild-type Ba/F3 cells. Nature of the data set: Ba/F3 cell proliferation assay, HER2 wild-type. Type of data set: cell-based. The conditions noted are these: Mus musculus, BaF3, 72 h, Celltiter-Glo cell viability; for GI50: read-out: HER2 WT/BaF3 GI50; for Emax: read-out: HER2 WT/BaF3 Imax %. The procedure: as §1, §2, §3
A short description of data set [5]: in vivo. On the set-up: species or system SD rats. The conditions noted are these: both sexes, SD, rat, po, 50 mg/kg. The procedure: SD rats were used as test animals. After intragastric (i.g.) administration of example compounds to SD rats, the plasma concentrations at different time points were measured by the LC/MS/MS method. The pharmacokinetic behavior of the compound of the present disclosure in SD rats was studied, and its pharmacokinetic profiles were evaluated.
Four SD rats, of which half were male and half female, were provided by Vital River Laboratory Animal Technology Co., Ltd. The animals were fasted overnight and then intragastrically dosed.
A certain amount of example compound was weighed out and dissolved in 5% DMSO+20% PEG400+70% (10% TPGS)+5% (1% HPMC K100LV) to prepare a 5 mg/mL colorless clear solution.
The dose administered was 50 mg/kg, and the volume was 10.0 mL/kg.
0.2-mL blood samples were collected from the orbit before administration and 0.25 h, 0.5 h, 1.0 h, 2.0 h, 4.0 h, 6.0 h, 8.0 h, 11.0 h, and 24.0 h after administration. The blood samples were placed into EDTA-K2 anticoagulation test tubes and centrifuged at 10,000 rpm for 1 min (4° C.), and plasma was separated within 1 h and stored in dry ice before analysis. The procedure starting from the blood collection to the centrifugation was performed under ice-bath conditions. Access to food was given 2 hours after administration.
After administration of different concentrations of the test compounds, the plasma concentration of the test compound in SD rats was determined: plasma samples (50 μL) were collected from the SD rats at various time points after administration, and 25 μL of camptothecin (1 μg/mL) and 450 μL of acetonitrile were added to each of the samples. The mixtures were vortexed and centrifuged at 3700 rpm for 10 min. 0.1 μL of the supernatant was taken for LC/MS/MS analysis.

In data set [1], `C=CC(=O)N1[C@@H]2CC[C@H]1C[C@@H](Oc1ccc3ncnc(Nc4ccc(Oc5ccn6ncnc6c5)c(C)c4F)c3c1)C2` [Example 10, 1-(endo-3-((4-((4-([1,2,4]Triazolo[1,5-a]pyridin-7-yloxy)-2-fluoro-3-methylphenyl)amino)quinazolin-6-yl)oxy)-8-azabicyclo[3.2.1]octan-8-yl)prop-2-en-1-one] yielded an area under the curve AUC(0-t) of 31200 ng·h/mL, a CL/F of 26.5 mL/min/kg, a Cmax of 14000 ng/mL and a Vd/F of 3.75 L/kg. Also, the half-life in data set [1] was 1.6 h. Further, in data set [2], the GI50 is 0.0103 µM and the Emax turned out to be 100%. In data set [3], the “EGFR WT/BaF3 Imax %” value is recorded as 100% and the GI50 was 2.84 µM. Further, in data set [4], the GI50 turned out to be 0.0093 µM and the Emax was 100%. For the same compound, in data set [5], the AUC(0-t) was determined as 70800 ng·h/mL, the CL/F came to 14.7 mL/min/kg, the concentration peaked (Cmax) at 19300 ng/mL and the Vd/F came to 2.95 L/kg. Further, in data set [5], the half-life is 2.3 h.
Turning to `C=CC(=O)N1[C@@H]2CC[C@H]1C[C@@H](Oc1ccc3ncnc(Nc4ccc(Oc5ccc6c(c5)ncn6C)c(C)c4F)c3c1)C2` [Example 18, 1-(endo-3-((4-((2-Fluoro-3-methyl-4-((1-methyl-1H-benzo[d]imidazol-5-yl)oxy)phenyl)amino)quinazolin-6-yl)oxy)-8-azabicyclo[3.2.1]octan-8-yl)prop-2-en-1-one], in data set [1], the area under the curve AUC(0-t) was 44900 ng·h/mL, the CL/F is 18.5 mL/min/kg, the Cmax was 12700 ng/mL and the Vd/F is 3.93 L/kg. Besides, the half-life in data set [1] was 2.5 h. In data set [2], the GI50 was found to be 0.0236 µM and the Emax stood at 100%. In data set [3], the “EGFR WT/BaF3 Imax %” value came out at 100% and the GI50 is 2.13 µM. For the same compound, in data set [4], the GI50 came out at 0.0177 µM and the Emax came to 100%.
In the case of `C=CC(=O)N1[C@@H]2CC[C@H]1C[C@H](Oc1cc3c(Nc4ccc(Oc5ccn6ncnc6c5)c(C)c4)ncnc3cn1)C2` [Example 26, 1-(exo-3-((4-((4-([1,2,4]Triazolo[1,5-a]pyridin-7-yloxy)-3-methylphenyl)amino)pyrido[3,4-d]pyrimidin-6-yl)oxy)-8-azabicyclo[3.2.1]octan-8-yl)prop-2-en-1-one], in data set [1], the AUC(0-t) was found to be 32100 ng·h/mL, the apparent clearance CL/F came out at 26 mL/min/kg, the Cmax is 11300 ng/mL and the Vd/F was 2.88 L/kg. The same compound had a half-life in data set [1] of 1.3 h. In addition, in data set [2], the GI50 was determined as 0.0234 µM and the Emax amounted to 100%. Also, in data set [3], the “EGFR WT/BaF3 Imax %” value was 100% and the GI50 was 1.63 µM. Moreover, in data set [4], the GI50 is 0.0092 µM and the Emax was determined as 100%.

The term AUC(0-t) denotes the area under the concentration-time curve up to a stated or last time point. Read a high AUC(0-t) as high exposure. In general, CL/F refers to the apparent clearance, not corrected for the fraction that reaches the circulation. As usually defined, the Cmax is the maximum level reached in the sampled fluid or tissue. For orientation: Vd/F means the volume of distribution divided by bioavailability. A word on the half-life: it is the time in which the quantity being followed falls by half. Lower therefore signals fast loss.
